Experimental data as given in patent publication US6380248B1, “Metal-thiols as immunomodulating agents” (Winthrop University Hospital, priority 1998, dated 2002).
Where two headings read alike, the source gives them in different places.

Legend:
bacteria = assay: Antibacterial activity of bismuth-thiols; assay type: cell-based; details: for antibacterial / antimicrobial activity in words: comparison between bismuth-thiols
[1] = system: CLP mice (sepsis induced by cecal ligation and perforation); assay: Survival of septic mice (cecal ligation and perforation, CLP) treated with BisEDT; assay type: in vivo
Description: In the absence of any treatment, mortality rate is greater than 90% within 18-72 hours.
The object was to determine if Bismuth-ethanedithiol (BisEDT) in a molar ratio of 1:2, would protect CLP mice. Mortality rate of greater than 90% is observed within 18-72 hours in this model. A dose response study was performed to determine an optimal dose of BisEDT. […] Data were analyzed using Chi-Square and Krumkal Walkis tests. The data are presented below as average ±SEM. Data compared to control (dose 0) were considered significant (*) at p<0.05.

[2] = system: macrophages/monocytes from CLP mice; assay type: in vivo
IL-1α = assay: Serum cytokine levels in CLP mice treated with BisEDT; assay type: in vivo; details: BisEDT 1:2 (Bismuth 20 μg/kg BW) tail vein 5 h after CLP, sacrificed 18 h after injection
TNFα = assay: as above; assay type: in vivo; details: BisEDT 1:2 (Bismuth 20 μg/kg BW) tail vein 5 h after CLP, sacrificed 18 h after injection, * p<0.05
IL-10 [3] = assay: as above; assay type: in vivo; details: BisEDT 1:2 (Bismuth 20 μg/kg BW) tail vein 5 h after CLP, sacrificed 18 h after injection
TGFβ1 = assay: as above; assay type: in vivo; details: BisEDT 1:2 (Bismuth 20 μg/kg BW) tail vein 5 h after CLP, sacrificed 18 h after injection
IL-10 [4] = assay type: in vivo, mice
[5] = system: pro- and anti-inflammatory cytokines; assay: Polymicrobial sepsis induced up-regulation of cytokines in mice; details: mouse, in vivo
mice [6] = assay: Toxicity / lethality to mice; details: mouse, in vivo
[7] = Stability of the bismuth-thiol compound; assay type: physicochemical; details: compared to bismuth:dimercaprol
mice [8] = details: according to MSDS sheets from Aldrich Chemical Company; cited from earlier work
[9] = repeat study, Injection Once a Day, dose 2 ug/kg BW, * p<0.05
[10] = repeat study, Injection Once a Day, dose 200 ug/kg BW
[11] = repeat study, Injection Twice a Day, dose 2 ug/kg BW, * p<0.05
[12] = repeat study, Injection Twice a Day, dose 200 ug/kg BW

Bismuth:propanedithiol (1,3-propanedithiol)
antibacterial / antimicrobial activity in words (bacteria): works quite well, but not as well as the vicinal dithiols

O=S(=O)(O)CC(S)CS (centres unmarked) [dimercaptopropane-1-sulfonic acid, reference compound]
antibacterial synergy of the thiol with bismuth (bacteria): did not show antibacterial synergy

dimercapto-succinic acid [reference compound]
antibacterial synergy of the thiol with bismuth (bacteria): largely abolished synergy with bismuth | antibacterial synergy of the thiol with bismuth (bacteria; listed as DMSA): did not show antibacterial synergy

bismuth:2-mercaptoethylamine
decrease in activity compared with bismuth:β-mercaptoethanol (bacteria; antibacterial activity): 5 fold

Bismuth-ethanedithiol [BisEDT]
Survival ([1]; dose 2 ug/kg BW via tail vein once a day for three days, observed 8 days, average ±SEM, dose response study): 64 ± 43 h | Survival (%) ([1]; dose 2 ug/kg BW via tail vein once a day for three days, observed 8 days, dose response study): 20% | Survival (hrs.) ([1]; dose 20 ug/kg BW via tail vein once a day for three days, average ±SEM, dose response study, * p<0.05 vs dose 0): 110 ± 35* hrs. | Survival (%) ([1]; dose 20 ug/kg BW via tail vein once a day for three days, dose response study, * p<0.05 vs dose 0): 60* % | Survival ([1]; dose 200 ug/kg BW via tail vein once a day for three days, average ±SEM, dose response study): 75 ± 21 h | Survival (%) ([1]; dose 200 ug/kg BW via tail vein once a day for three days, dose response study): 40% | Survival ([1]; dose 2000 ug/kg BW via tail vein once a day for three days, average ±SEM, dose response study): 48 ± 24 h | Survival (%) ([1]; dose 2000 ug/kg BW via tail vein once a day for three days, dose response study): 20% | effect on survival ([1]; dose of 20 μg/kg body weight): significantly increase survival | effect of increase in dose frequency on survival ([1]; once daily to twice daily, P=0.73): did not increase survival | Survival (%) [1, 9]: 56* % | Survival (hrs.) [1, 9]: 109 ± 29* hrs. | Survival [1, 10]: 75 ± 21 h | Survival (%) [1, 10]: 40% | Survival (%) [1, 11]: 44* % | Survival (hrs.) [1, 11]: 103 ± 29* hrs. | Survival [1, 12]: 97 ± 40 h | Survival (%) [1, 12]: 40% | percentage survival, overall ([1]; treatment group versus 0% (control), summary of Example 1): 60% | survivability, overall ([1]; with treatment versus approximately 36 hours without treatment, summary of Example 1): 108 h | amounts of superoxide, H2O2 and NO2- produced by macrophages/monocytes, unstimulated ([2]; from BisEDT-treated CLP mice (Bismuth 20 μg/kg BW), without in vitro stimulation): in between that produced by the control and untreated CLP mice but not significantly different from either of these groups | release of superoxide, H2O2 and NO2- by macrophages/monocytes, stimulated ([2]; mouse, in vivo): significantly increased | Serum IL-1α level (IL-1α): 10.5 ± 1.1 pg/mL | Serum TNFα level (TNFα): 13.7 ± 2.9* pg/ml | Serum IL-10 level (IL-10 [3]): 165 ± 69 pg/mL | Serum TGFβ1 level (TGFβ1): 24.8 ± 3.6 pg/mL | IL-10 production in vitro by splenic macrophages (IL-10 [4]; from CLP mice treated with BisEDT, unstimulated): do not produce IL-10 in vitro as much as the macrophages from BisEDT untreated CLP animals | IL-10 release by splenic macrophages, stimulated (IL-10 [4]; mouse, in vivo): did not significantly up-regulate the IL-10 release | prevention of sepsis induced up-regulation of pro- and anti-inflammatory cytokines [5]: able to prevent the polymicrobial sepsis induced up-regulation of both pro- and anti-inflammatory cytokines | antibacterial / antimicrobial activity in words (bacteria): stronger antimicrobial agent than bismuth:dimercaprol | toxicity compared to bismuth:dimercaprol (mice [6]): no more toxic | stability [7]: more stable compound at all molar ratios and pHs | lethality to mice (mice [8]): very similar to that of dimercaprol

Bismuth-2,3-BDT (2,3-butanedithiol)
antibacterial / antimicrobial activity in words (bacteria): as good as bismuth:ethanedithiol

SCCCCS.[Bi] [Bismuth-1,4-butanedithiol]
less antibacterial activity (compared with vicinal dithiols Bismuth-2,3-BDT / bismuth:ethanedithiol) (bacteria): ~100 fold

CC(O)C(C)S (centres unmarked) [3-mercapto-2-butanol]
amount of thiol required relative to dimercaprol to achieve similar inhibitory activity (bacteria; in combination with bismuth): Approximately 3 times
